Data reported in US11155539B2, “4-pyridinylmethyl-morpholine derivatives and the use thereof as medicament” (Boehringer Ingelheim International GmbH, priority 2018, dated 2021).
pIC50: −log10 of the molar value.

How the values were obtained:
[1] = Metabolic stability in pooled human liver microsomes; format: in vitro ADME; settings: pH 7.6, 1 μM compound, 37° C., NADPH, read-out: Half-life - t½ human liver microsomes
Description: Stability in human liver microsomes refers to the susceptibility of compounds to biotransformation in the context of selecting and/or designing drugs with favorable pharmacokinetic properties. The primary site of metabolism for many drugs is the liver. Human liver microsomes contain the cytochrome P450s (CYPs), and thus represent a model system for studying drug metabolism in vitro Enhanced stability in human liver microsomes is associated with several advantages, including increased bioavailability and adequate half-life, which can enable lower and less frequent dosing of patients. Thus, enhanced stability in human liver microsomes is a favorable characteristic for compounds that are to be used for drugs.
The metabolic degradation of the test compound was assayed at 37° C. with pooled human liver microsomes. The final incubation volume of 60 μl per time point contains TRIS buffer pH 7.6 at room temperature (0.1 M), magnesium chloride (5 mM aqueous solution), microsomal protein (1 mg/mL for human) and the test compound at a final concentration of 1 μM. Following a short preincubation period at 37° C., the reactions were initiated by addition of betanicotinamide adenine dinucleotide phosphate, reduced form (NADPH, 1 mM), and terminated by transferring an aliquot into acetonitril after different time points. After centrifugation (10000 g, 5 min), an aliquot of the supernatant was assayed by HPLC-MS/MS as described above for the MDCK assay P-gp for the amount of parent compound. The half-life was determined by the slope of the semi-logarithmic plot of the concentration-time profile.

NMDA NR1/NR2B receptor [2] = biological target: T1, NMDA NR1/NR2B receptor (Homo sapiens, UniProt Q05586+Q13224); assay: In vitro NMDA NR1/NR2B cell assay (FLIPR, intracellular calcium induced by glycine/glutamate); format: cell-based; settings: HEK293 cells expressing NMDA NR1/NR2B; 20 μM glycine, 1 μM glutamate; read-out: IC50 (in vitro NR2B affinity, FLIPR assay)
T1 construct: host or cells: HEK293, tetracycline-inducible expression
Experimental: (§1) A human HEK293 cell line with tetracyclin-inducible expression of NMDA NR1/NR2B receptor was used as a test system for compound efficacy and potency. The cell line was purchased from ChanTest, Catalog #CT6121. Compound activity was determined by measuring the effect of compounds on intracellular calcium concentration induced by glycine/glutamate agonism in a FLIPRtetra system (Molecular Devices).
(§2) The cells were obtained as frozen cells in cryo-vials and stored until use at −150° C. Cells were grown in culture medium (DMEM/F12, 10% FBS, 5 μg/mL Blasticidin, 150 μg/mL Zeozin, 500 μg/mL Geneticin). […] For sub-culturing the cells were detached from flasks by Versene. For the assay, cells were detached, washed twice with induction medium (DMEM/F12 without glutamine, 10% FBS, 2 μg/mL Tetracycline, 2 mM Ketamine) and seeded to 384 well pure coat amine plates (Becton Dickinson, 50000 cells per well in 50 μl) 48 h prior to assay in induction medium.
(§3) The test compounds were dissolved in 100% DMSO at a concentration of 10 mM and in a first step diluted in DMSO to a concentration of 5 mM, followed by serial dilution steps in 100% DMSO. Dilution factor and number of dilution steps may vary according to needs. Typically 8 different concentrations by 1:5 dilutions were prepared in duplicate, further intermediate dilutions (1:37.5) of the substances were carried out with aqueous assay buffer (137 mM NaCl, 4 mM KCl, 1.8 mM CaCl2, 10 mM HEPES, 10 mM Glucose, pH 7.4) resulting in a compound concentration 3 times above the final test concentration and DMSO at 2.7% resulting in 0.9% final DMSO concentration in the assay.
(§4) At the assay day cells were washed 3× with assay buffer (as described above), 10 μL buffer remained in the wells after washing. 10 μL Ca kit loading buffer (AAT Bioquest; prepared from the kit containing the following components: Component A: Fluo-8 NW dissolved in 200 μL DMSO and 20 μl of this solution are mixed with 10 ml buffer prepared out of component B and C, Component B: 10× Pluronic® F127 Plus diluted 1:10 in component C, Component C: HHBS (Hanks with 20 mM Hepes) was added to the cells and the plates were incubated with lid for 60 minutes at room temperature. 20 μl assay buffer containing 60 μM glycine (20 μM final) and 3 μM glutamate (1 μM final) was added to column 1-23, column 24 got assay buffer without glycine/glutamate to serve as negative unstimulated control. Fluorescence (indicating the calcium influx as a result of the NR1/NR2B ion channel activation) was read on the FLIPRtetra device for 60 seconds to monitor the glutamate induced effects. After 2 minutes 20 μL of compound dilution prepared as described above or controls (row 1-22) in assay buffer were carefully added to the wells. […] The average of 2 measurements at 5 minutes and […] 10 seconds after compound addition is calculated and further used for IC50 calculations. Each assay microtiter compound dilution plate contained wells (in column 23 or 24) with DMSO controls instead of compound as controls for glycine/glutamate induced fluorescence (high controls) and wells with 1 μM of a reference NR2B NAM as low controls (Compound 22; reference: Layton, Mark E et al, ACS Chemical Neuroscience 2011, 2(7), 352-362).
(§5) The output file of the reader contains the well number and measured average fluorescence units. For data evaluation and calculation, the measurement of the low control was set as 0% control and the measurement of the high control was set as 100% control. The IC50 values were calculated using the standard 4 parameter logistic regression formula. Calculation: [y=(a−d)/(1+(x/c)^b)+d], a=low value, d=high value; x=conc M; c=IC50 M; b=slope.

MDR1 (P-gp) = biological target: T2, MDR1 (P-gp) (Homo sapiens, UniProt P08183); assay: MDCK assay P-gp (permeability across MDCK-MDR1 monolayers); format: in vitro ADME; settings: for Papp A→B at 2 h: apical-to-basal, MDCK-MDR1 monolayers, pH 7.4; for efflux ratio at 2 h: pH 7.4, Papp (b-a) divided by Papp (a-b), MDCK-MDR1, read-out: efflux ratio PEBA/PEAB
T2 construct: expressed in transfected cells; host or cells: MDCKII (Madin-Darby canine kidney)
Experimental: The MDCK assays provide information on the potential of a compound to pass the blood brain barrier. Permeability measurements across polarized, confluent MDCK-MDR1 cell monolayers grown on permeable filter supports are used as an in vitro absorption model: apparent permeability coefficients (PE) of the compounds across the MDCK-MDR1 cell monolayers are measured (pH 7.4, 37° C.) in apical-to-basal (AB) and basal-to-apical (BA) transport direction. The AB permeability (PEAB) represents drug absorption from the blood into the brain and the BA permeability (PEBA) drug efflux from the brain back into the blood via both, passive permeability as well as active transport mechanisms mediated by efflux and uptake transporters that are expressed on the MDCK-MDR1 cells, predominantly by the overexpressed human MDR1. Identical or similar permeabilities in both transport directions indicate passive permeation (PEBA/PEAB≤1), vectorial permeability points to additional active transport mechanisms. Higher PEBA than PEAB (PEBA/PEAB>5) indicates the involvement of active efflux mediated by MDR1, which might compromise the goal to achieve sufficient brain exposure. Therefore, this assay provides valuable support for selection of compounds applicable for further in vivo testing. High permeability not limited by efflux at the blood brain barrier is a favorable characteristic for compounds that are to be used for drugs acting primarily in the CNS.
Apparent permeability coefficients (Papp) of the compounds across the MDCK-MDR1 monolayers (MDCKII cells transfected with human MDR1 cDNA expression plasmid) are measured in apical-to-basal (AB) and basal-to-apical (BA) direction. MDCK-MDR1 cells (6×10^5 cells/cm^2) are seeded on filter inserts (Corning, Transwell, polycarbonate, 0.4 μm pore size) and cultured for 9 to 10 days. Compounds dissolved in DMSO stock solution (1-20 mM) are diluted with HTP-4 aqueous buffer (128.13 mM NaCl, 5.36 mM KCl, 1 mM MgSO4, 1.8 mM CaCl2, 4.17 mM NaHCO3, 1.19 mM Na2HPO4, 0.41 mM NaH2PO4, 15 mM HEPES, 20 mM glucose, pH 7.4) supplemented with 0.25% BSA to prepare the transport solutions (final concentration: 1 or 10 μM, final DMSO<=0.5%). The transport solution is applied to the apical or basolateral donor side for measuring A-B or B-A permeability, respectively. The receiver side contains HTP-4 buffer supplemented with 0.25% BSA. Samples are collected at the start and end of experiment from the donor and at various time intervals for up to 2 hours also from the receiver side for concentration measurement by HPLC-MS/MS (RapidFire High-throughput MS System (Agilent) coupled to QTrap 6500 (AB Sciex) or TSQ Vantage (Thermo Scientific)). Sampled receiver volumes are replaced with fresh receiver solution. Efflux ratio is calculated dividing the Papp (b-a) values by the Papp (a-b) values.

NMDA NR1/NR2B receptor [3] = biological target: T3, NMDA NR1/NR2B receptor (Homo sapiens, UniProt Q13224); assay: In vitro NMDA NR1/NR2B cell assay (FLIPR, intracellular calcium induced by glycine/glutamate); format: cell-based; settings: see Table 2
T3 construct: host or cells: HEK293, tetracycline-inducible expression
Experimental: as §1, §2, §3, §4, §5

Nav1.6 = Nav1.6 (Homo sapiens, UniProt Q9UQD0); assay: Nav 1.6 inhibition, IonWorks Quattro electrophysiology; format: cell-based; settings: for inhibition at 1 µM / inhibition at 5 µM: normalized to vehicle control (0%) and maximal inhibition control (100%)
Experimental: Determination of Nav 1.6.Inhibition
IonWorks Quattro electrophysiological platform
The compounds were prepared in DMSO at 300× the final assay concentrations of 1 and 5 μM.
The 300×DMSO stock solutions were transferred into assay plates where 2 μl per well of each 300× stock solution were placed. All assay plates were stored at −80° C. until the day of assay.
On the day of the assay, the appropriate assay plate was thawed at room temperature, centrifuged, and 198 μl of external recording solution was added and mixed thoroughly. This provided a 1:100 dilution. A further 1:3 dilution occurred upon addition to the cells in the IonWorks Quattro electrophysiological platform, giving a 1:300 dilution in total. On each assay plate, at least 8 wells were reserved for vehicle control (0.3% DMSO) and at least 8 wells for each positive control specific to the cell line tested. The positive controls were tested at a maximal blocking and an approximate IC50 concentration. As positive control Lidocaine at concentrations of 30 and 1000 μM was used.
The solutions for recording Nav1.6 currents were as follows:
Amphotericin B was used to obtain electrical access to the cell interior at a final concentration of 200 μg/ml in internal recording solution.
State-dependent inhibition: Sodium channels when held at depolarized potential or long test pulse, the channels open and inactivate and then stay inactivated until the membrane potential is stepped back to hyperpolarized potentials, when the inactivated channels recover from inactivation into closed state.
Cells were held at −120 mV. In order to completely inactivate the sodium channels (pulse 1), the cells were pulsed to +0 mV for 2500 ms and stepped back to −120 mV for 10 ms (to completely recover from inactivation, however channels that had drugs bound to them will not recover from inactivation) before stepping to +0 mV for 20 ms (pulse 2).
Both the positive and vehicle control data associated with each cell line assayed are shown below as an example. The mean is shown for each positive and negative control as solid symbol with the total number of individual well replicates given next to the solid symbol. In addition, the individual data of each well are shown on the graph as open symbols so that the variation about the mean value can be readily assessed.
Shown below are the assay controls for the Nav1.6 IonWorks Quattro assay.
Tables 3 and 4 show the normalized percentage inhibition of Nav1.6 channel. […] (see also the figure Assay Control Results above).

T1 sequence (Q13224 27-1484, other chains not shown): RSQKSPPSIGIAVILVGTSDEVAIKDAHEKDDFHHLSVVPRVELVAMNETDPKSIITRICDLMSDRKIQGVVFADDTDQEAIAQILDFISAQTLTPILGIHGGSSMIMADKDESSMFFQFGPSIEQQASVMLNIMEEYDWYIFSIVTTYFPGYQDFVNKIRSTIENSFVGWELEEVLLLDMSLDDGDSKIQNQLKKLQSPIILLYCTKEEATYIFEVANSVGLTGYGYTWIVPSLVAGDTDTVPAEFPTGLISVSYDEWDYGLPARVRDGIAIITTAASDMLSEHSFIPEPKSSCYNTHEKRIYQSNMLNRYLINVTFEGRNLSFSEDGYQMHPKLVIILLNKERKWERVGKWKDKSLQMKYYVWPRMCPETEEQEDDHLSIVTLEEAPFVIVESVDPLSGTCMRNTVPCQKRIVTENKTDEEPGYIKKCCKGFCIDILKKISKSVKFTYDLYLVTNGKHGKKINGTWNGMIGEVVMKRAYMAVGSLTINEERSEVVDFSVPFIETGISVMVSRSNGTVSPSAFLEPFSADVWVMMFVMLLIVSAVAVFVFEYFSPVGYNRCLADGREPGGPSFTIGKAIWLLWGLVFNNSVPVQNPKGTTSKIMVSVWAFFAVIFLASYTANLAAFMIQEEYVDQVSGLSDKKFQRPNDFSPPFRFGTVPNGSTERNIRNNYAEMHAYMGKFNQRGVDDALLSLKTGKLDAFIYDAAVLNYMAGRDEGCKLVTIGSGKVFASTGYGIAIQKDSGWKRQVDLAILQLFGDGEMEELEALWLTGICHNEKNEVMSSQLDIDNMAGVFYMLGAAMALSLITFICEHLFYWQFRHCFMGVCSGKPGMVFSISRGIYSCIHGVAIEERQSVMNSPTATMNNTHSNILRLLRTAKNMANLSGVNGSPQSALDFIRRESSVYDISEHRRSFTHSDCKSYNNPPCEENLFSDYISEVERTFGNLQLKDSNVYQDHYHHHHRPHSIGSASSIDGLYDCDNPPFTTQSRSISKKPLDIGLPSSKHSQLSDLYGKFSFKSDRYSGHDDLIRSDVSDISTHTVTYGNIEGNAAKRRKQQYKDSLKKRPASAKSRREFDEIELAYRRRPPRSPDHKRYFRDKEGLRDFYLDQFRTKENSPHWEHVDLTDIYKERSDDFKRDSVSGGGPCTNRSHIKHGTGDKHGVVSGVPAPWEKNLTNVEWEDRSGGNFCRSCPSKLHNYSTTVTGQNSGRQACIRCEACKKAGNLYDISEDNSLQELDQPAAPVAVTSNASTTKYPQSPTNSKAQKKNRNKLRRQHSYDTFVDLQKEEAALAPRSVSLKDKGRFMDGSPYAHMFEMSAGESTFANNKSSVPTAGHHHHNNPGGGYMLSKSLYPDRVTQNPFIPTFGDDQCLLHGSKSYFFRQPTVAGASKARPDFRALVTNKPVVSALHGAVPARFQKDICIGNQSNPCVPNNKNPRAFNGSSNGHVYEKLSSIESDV
T3 sequence (Q13224 27-1484, other chains not shown): as above
T2 sequence (P08183 whole entry): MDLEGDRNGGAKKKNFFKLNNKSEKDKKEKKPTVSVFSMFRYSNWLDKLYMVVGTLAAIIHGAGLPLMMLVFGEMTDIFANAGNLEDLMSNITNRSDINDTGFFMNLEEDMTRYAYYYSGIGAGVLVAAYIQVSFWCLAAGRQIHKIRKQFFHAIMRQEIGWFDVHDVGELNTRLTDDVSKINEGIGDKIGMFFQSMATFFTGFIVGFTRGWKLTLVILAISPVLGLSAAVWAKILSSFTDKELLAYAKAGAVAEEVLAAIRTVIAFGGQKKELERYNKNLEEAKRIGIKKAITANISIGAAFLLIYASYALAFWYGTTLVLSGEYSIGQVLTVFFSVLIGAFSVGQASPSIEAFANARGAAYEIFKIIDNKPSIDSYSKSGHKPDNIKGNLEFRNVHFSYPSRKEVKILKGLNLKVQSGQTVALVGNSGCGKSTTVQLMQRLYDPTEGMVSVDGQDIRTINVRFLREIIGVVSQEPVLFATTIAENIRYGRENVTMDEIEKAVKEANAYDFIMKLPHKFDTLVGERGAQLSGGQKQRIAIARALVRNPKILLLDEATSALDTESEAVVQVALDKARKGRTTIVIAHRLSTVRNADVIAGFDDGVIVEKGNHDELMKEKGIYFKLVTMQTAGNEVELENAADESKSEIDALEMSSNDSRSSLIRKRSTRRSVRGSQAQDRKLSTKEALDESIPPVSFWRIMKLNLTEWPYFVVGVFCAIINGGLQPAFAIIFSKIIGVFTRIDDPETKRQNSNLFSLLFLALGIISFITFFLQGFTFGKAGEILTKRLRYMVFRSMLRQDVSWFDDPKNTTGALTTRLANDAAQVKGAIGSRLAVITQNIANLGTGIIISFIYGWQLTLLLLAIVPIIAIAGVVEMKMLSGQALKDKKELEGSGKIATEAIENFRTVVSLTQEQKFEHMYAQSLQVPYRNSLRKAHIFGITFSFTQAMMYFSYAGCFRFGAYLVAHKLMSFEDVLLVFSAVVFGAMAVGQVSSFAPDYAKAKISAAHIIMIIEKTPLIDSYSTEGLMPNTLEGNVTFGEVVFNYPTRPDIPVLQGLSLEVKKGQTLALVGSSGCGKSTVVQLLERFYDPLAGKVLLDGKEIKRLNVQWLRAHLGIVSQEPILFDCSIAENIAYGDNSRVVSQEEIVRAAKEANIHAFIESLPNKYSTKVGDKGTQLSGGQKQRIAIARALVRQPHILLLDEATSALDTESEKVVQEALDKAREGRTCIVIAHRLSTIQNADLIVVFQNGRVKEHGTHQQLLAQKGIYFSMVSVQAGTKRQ

half-life at 1 μM [1] [h] | pIC50 (NMDA NR1/NR2B receptor [2]) | Papp A→B at 2 h (MDR1 (P-gp)) [×10⁻⁶ cm/s] | efflux ratio at 2 h (MDR1 (P-gp)) | inhibition at 1 µM (Nav1.6) [%] | inhibition at 5 µM (Nav1.6) [%] | Structure (SMILES) | activity on the NR1-NR2B ion channel (in words) (NMDA NR1/NR2B receptor [3]) | significant inhibition of the Nav 1.6 channel (in words) (Nav1.6; at 1 and 5 μM)
> 2.17 | 6.88 | 58 | 0.8 |  |  | CNC(=O)[C@@H]1CN(Cc2ccc(Oc3ccc(C)cc3F)cn2)CCO1 [Example 34] |  | 
> 2.17 | 6.44 | 71 | 0.5 |  |  | CNC(=O)[C@@H]1CN(Cc2ccc(Oc3ccccc3F)cn2)CCO1 [Example 33] |  | 
 |  |  |  |  |  | CCNC(=O)C1CN(Cc2cccc(Oc3ccccc3)c2)CCO1 (centres unmarked) [Example 100 of WO2015/130905, reference compound] | do not show any activity | 
> 2.17 |  | 51 | 0.7 | -0.5 | 7.1 | CNC(=O)C1CN(Cc2ccc(Oc3ccc(Cl)cc3)nc2)CCO1 (centres unmarked) [Example 16] |  | 
 |  |  |  |  |  | O=C(NCc1ccccn1)C1CN(Cc2cccc(Oc3ccccc3)c2)CCO1 (centres unmarked) [Example 105 of WO2015/130905, reference compound] | do not show any activity | 
> 2.17 | 6.59 | 80 | 0.5 |  |  | CNC(=O)[C@@H]1CN(Cc2ccc(Oc3ccc(Cl)cc3F)cn2)CCO1 [Example 32] |  | 
> 2.17 |  | 45 | 1 | -3.1 | -1.8 | CNC(=O)C1CN(Cc2ccc(Oc3ccc(C)cc3C)nc2)CCO1 (centres unmarked) [Example 13] |  | 
> 2.17 | 6.56 | 63 | 0.7 |  |  | CNC(=O)[C@@H]1CN(Cc2ccc(Oc3ccc(F)cc3F)cn2)CCO1 [Example 31] |  | 
> 2.17 |  | 42 | 0.7 | -17.4 | -1.4 | CNC(=O)C1CN(Cc2ccc(Oc3ccc(Cl)cc3F)nc2)CCO1 (centres unmarked) [Example 15] |  | 

Structure (SMILES) | half-life at 1 μM [1] [h] | pIC50 (NMDA NR1/NR2B receptor [2]) | Papp A→B at 2 h (MDR1 (P-gp)) [×10⁻⁶ cm/s] | efflux ratio at 2 h (MDR1 (P-gp)) | inhibition at 1 µM (Nav1.6) [%] | inhibition at 5 µM (Nav1.6) [%] | activity on the NR1-NR2B ion channel (in words) (NMDA NR1/NR2B receptor [3]) | significant inhibition of the Nav 1.6 channel (in words) (Nav1.6; at 1 and 5 μM)
COCCNC(=O)C1CN(Cc2cccc(Oc3ccccc3)c2)CCO1 (centres unmarked) [Example 107 of WO2015/130905, reference compound] |  | < 5.03 |  |  | -8.5 | 13.1 | do not show any activity | do not show any significant inhibition
